According to patent publication US11235023B2, “Beta-hairpin peptidomimetic with elastase inhibitory activity and aerosol dosage forms thereof” (POLYPHOR AG, priority 2016, dated 2022):
Non-standard residues stand in square brackets, D forms with d. Residues, ends and D or L forms follow the SMILES beside them. Gly(octyl) = CCCCCCCC[C@H](N)C(=O)O

Legend:
[1] = GLP-compliant 28-day inhalation toxicity study in monkeys; type: in vivo, cynomolgus monkey
Protocol: In a GLP-compliant 28-day inhalation toxicity study in cynomolgus monkeys, conducted by Charles River Laboratories Preclinical Services, Tranent, Edinburgh, UK, the formulation described in Example 2 and dilutions thereof as well as the vehicle were administered using the Pari eFlow® XL 30 nebulizer device (Pari Pharma, Starnberg, Germany) with an oro-nasal inhalation mask for 60 min per day for 28 days, followed by a 2-week recovery period. […] In total five males and five females were used for each dose of the toxicity study including recovery. Parameters assessed included clinical signs, body weights, electrocardiology, ophthalmic examination, clinical pathology, toxicokinetic parameters in the plasma, gross necropsy findings, organ weights and histopathologic examinations.

neutrophil elastase = assay: LPS/fMLP model of neutrophil activation in the rat, neutrophil elastase activity in BAL supernatant; type: in vivo; conditions: for NE activity: BAL 6 h post LPS, mean ± s.e.m., vehicle 0.25 ± 0.02
[2] = Phase-Ib single ascending dose study in patients with cystic fibrosis, safety and tolerability; type: in vivo, human
Source text: In this randomised, double-blind, placebo-controlled, parallel-group (per dose level) dose-escalation study, the safety and tolerability of single ascending doses (SAD) of acetate salt of cyclo(-OctG-Glu-Thr-Ala-Ser-Ile-Pro-Pro-Gln-Lys-Tyr-^DPro-Pro-) administered by inhalation in patients with cystic fibrosis (CF) was investigated. Additionally, the pharmacokinetics of the drug following a single ascending dose in plasma and sputum as well as its pharmacodynamic effect on neutrophil elastase activity in sputum were evaluated.
In this study, conducted by Inamed GmbH, Gauting, Germany, 24 subjects with cystic fibrosis, who fulfilled all the inclusion criteria and in whom no exclusion criterion was present, were included and received randomised treatment. They were grouped into 3 dose groups of 8 subjects each. 6 subjects received the formulation described in Example 1 and dilutions thereof and 2 subjects received placebo (0.5% [w/w] aqueous sodium chloride solution adjusted to pH 5.5 with 1 M HCl pharmaceutical grade). The oral inhalation of the above formulation as well as the placebo occurred via the Pari eFlow® XL 30 nebulizer device (Pari Pharma GmbH, Starnberg, Germany). The dose levels and corresponding concentrations of cyclo(-OctG-Glu-Thr-Ala-Ser-Ile-Pro-Pro-Gln-Lys-Tyr-^DPro-Pro-) (active compound) are summarized in Table 14.
The volume of placebo nebulizer solution corresponded to that of the active compound at a particular dose level. The duration of inhalation was estimated to be between 7 and 20 min. Adverse events were tabulated and summarized according to the current version of Medical Dictionary for Regulatory Activities.

## CCCCCCCC[C@@H]1NC(=O)[C@@H]2CCCN2C(=O)[C@H]2CCCN2C(=O)[C@H](Cc2ccc(O)cc2)NC(=O)[C@H](CCCCN)NC(=O)[C@H](CCC(N)=O)NC(=O)[C@@H]2CCCN2C(=O)[C@@H]2CCCN2C(=O)[C@H]([C@@H](C)CC)NC(=O)[C@H](CO)NC(=O)[C@H](C)NC(=O)[C@H]([C@@H](C)O)NC(=O)[C@H](CCC(=O)O)NC1=O [active compound, cyclo(-OctG-Glu-Thr-Ala-Ser-Ile-Pro-Pro-Gln-Lys-Tyr-^DPro-Pro-)] (cyclo([Gly(octyl)]ETASIPPQKY[dP]P))
[1]; both sexes, in vivo, inhaled or intranasal, cynomolgus monkey, oro-nasal inhalation 60 min per day for 28 days
  NOAEL at 28 days: 112 mg/kg/day
[1]; cynomolgus monkey, in vivo
  Haematology and clinical pathology: some minor, toxicologically insignificant changes
  Histopathologic findings: increased numbers of alveolar macrophages, perivascular/peribronchiolar infiltrates, and granular eosinophilic deposits in the lung and lymphoid hyperplasia in the tracheobronchial lymph nodes
[1]; male monkeys at 112 mg/kg/day
  Gross findings: lung weight: increased lung weight
[1]; monkey, 11.2, 30.1 and 112 mg/kg/day
  Body weight, clinical signs, ophthalmic, electrocardiographic and urinary findings: no body weight changes, clinical signs, ophthalmic or electrocardiographic findings or changes in urinary parameters attributable to drug treatment
Neutrophil elastase; 0.3, 3 and 30 mg/kg by inhalation 3 h post LPS, 1 h prior to fMLP
  Effect on neutrophil elastase activity in BAL fluid: significantly inhibited
Neutrophil elastase; between dosing period and study termination
  Test item related clinical signs: No test item related clinical signs were observed
Neutrophil elastase; inhalation 0.3 mg/kg
  NE activity: 0.10 ± 0.01 mU/mL eq.
Neutrophil elastase; inhalation 3 mg/kg
  NE activity: 0.11 ± 0.01 mU/mL eq.
Neutrophil elastase; inhalation 30 mg/kg
  NE activity: 0.07 ± 0.01 mU/mL eq.
Neutrophil elastase; intratracheal doses of 0.03 to 3 mg/kg
  Efficacy in previous intratracheal study: efficacious
[2]; CF patients, single inhaled doses 80, 160, 320 mg
  Deaths, serious and other significant adverse events: No death, no serious adverse events (AE) and no other significant AE
[2]; human, in vivo
  Causal relationship of TEAEs: not related to the active compound
  Inhalation-related local AEs: no inhalation-related local AEs
  Total number of AEs (all TEAEs): 6
